# US10005767B2, “Compositions and methods for inhibition of the JAK pathway” (Rigel Pharmaceuticals, Inc., priority 2009, dated 2018)
# System: human primary T-cells, IL-2 stimulated proliferation (JAK-1 and JAK-3 dependent; reported as JAK3 activity)
# Assay: Human primary T-cell proliferation stimulated by IL-2 (Example 3)
# Format: cell-based
# Details: Homo sapiens, T-cell, tested under conditions described in Example 3 (IL-2 stimulated human primary T-cell proliferation); read-out: ability to inhibit JAK3 activity, IC50 range (Table V)
# In short: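 Peripheral-blood human T-cells pre-activated via TCR/CD28, IL-2-starved overnight, then cultured 72 h at 37 °C with compound in Yssel's medium containing IL-2 (80 U/mL in cell suspension). Proliferation read as viable-cell ATP by CellTiter-Glo luminescence; reduction versus control taken as JAK pathway inhibition.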
row,SMILES,IC50 [nM]
1,"Cc1cnc(Nc2ccc(Cl)c(OC(F)(F)F)c2)nc1Nc1ccc2oc(=O)[nH]c2c1 [Compound I-180, 5-[2-(4-Chloro-3-trifluoromethoxy-phenylamino)-5-methyl-pyrimidin-4-ylamino]-3H-benzooxazol-2-one]",< 500
2,"COc1cc(Nc2ncc(C)c(Nc3ccc4oc(=O)[nH]c4c3)n2)ccc1Cl [Compound I-181, 5-[2-(4-Chloro-3-methoxy-phenylamino)-5-methyl-pyrimidin-4-ylamino]-3H-benzooxazol-2-one]",< 500
3,"CCOc1cc(Nc2ncc(C)c(Nc3ccc4oc(=O)[nH]c4c3)n2)ccc1Cl [Compound I-182, 5-[2-(4-Chloro-3-ethoxy-phenylamino)-5-methyl-pyrimidin-4-ylamino]-3H-benzooxazol-2-one]",< 500
4,"COc1cc(Nc2ncc(C)c(Nc3ccc4oc(=O)[nH]c4c3)n2)ccc1F [Compound I-183, 5-[2-(4-Fluoro-3-methoxy-phenylamino)-5-methyl-pyrimidin-4-ylamino]-3H-benzooxazol-2-one]",< 500
5,"Cc1cnc(Nc2cc(Cl)cc(Cl)c2)nc1Nc1ccc2oc(=O)[nH]c2c1 [Compound I-184, 5-[2-(3,5-Dichloro-phenylamino)-5-methyl-pyrimidin-4-ylamino]-3H-benzooxazol-2-one]",< 500
6,"Cc1cnc(Nc2cc(Cl)cc(Br)c2)nc1Nc1ccc2oc(=O)[nH]c2c1 [Compound I-185, 5-[2-(3-Bromo-5-chloro-phenylamino)-5-methyl-pyrimidin-4-ylamino]-3H-benzooxazol-2-one]",> 10000
7,"Cc1cnc(Nc2cc(F)cc(Cl)c2)nc1Nc1ccc2oc(=O)[nH]c2c1 [Compound I-186, 5-[2-(3-Chloro-5-fluoro-phenylamino)-5-methyl-pyrimidin-4-ylamino]-3H-benzooxazol-2-one]",< 500
8,"Cc1cnc(Nc2cc(Cl)cc(C#N)c2)nc1Nc1ccc2oc(=O)[nH]c2c1 [Compound I-187, 3-Chloro-5-[5-methyl-4-(2-oxo-2,3-dihydro-benzooxazol-5-ylamino)-pyrimidin-2-ylamino]-benzonitrile]",< 500
9,"Cc1cnc(Nc2ccc(Br)c(C(F)(F)F)c2)nc1Nc1ccc2oc(=O)[nH]c2c1 [Compound I-188, 5-[2-(4-Bromo-3-trifluoromethyl-phenylamino)-5-methyl-pyrimidin-4-ylamino]-3H-benzooxazol-2-one]",< 500
10,"Cc1cnc(Nc2cc(Br)cc(C(F)(F)F)c2)nc1Nc1ccc2oc(=O)[nH]c2c1 [Compound I-189, 5-[2-(3-Bromo-5-trifluoromethyl-phenylamino)-5-methyl-pyrimidin-4-ylamino]-3H-benzooxazol-2-one]",< 500
11,"Cc1cc(Nc2ncc(C)c(Nc3ccc4oc(=O)[nH]c4c3)n2)ccc1C(=O)NC1CCC1 [Compound I-190, N-Cyclobutyl-2-methyl-4-[5-methyl-4-(2-oxo-2,3-dihydro-benzooxazol-5-ylamino)-pyrimidin-2-ylamino]-benzamide]",< 500
12,"Cc1cnc(Nc2ccc(OCCN3CCOCC3)c(Cl)c2)nc1Nc1ccc2oc(=O)[nH]c2c1 [Compound I-191, 5-{2-[3-Chloro-4-(2-morpholin-4-yl-ethoxy)-phenylamino]-5-methyl-pyrimidin-4-ylamino}-3H-benzooxazol-2-one]",< 500
13,"Cc1cnc(Nc2ccc(OCCN3CCOCC3)cc2)nc1Nc1ccc2oc(=O)[nH]c2c1 [Compound I-192, 5-{5-Methyl-2-[4-(2-morpholin-4-yl-ethoxy)-phenylamino]-pyrimidin-4-ylamino}-3H-benzooxazol-2-one]",< 500
14,"COc1cc(Nc2ncc(C)c(Nc3ccc4oc(=O)[nH]c4c3)n2)c(F)cc1F [Compound I-193, 5-[2-(2,4-Difluoro-5-methoxy-phenylamino)-5-methyl-pyrimidin-4-ylamino]-3H-benzooxazol-2-one]",500 to 5000
15,"CCOc1ccc(Nc2ncc(C)c(Nc3ccc4oc(=O)[nH]c4c3)n2)cc1Cl [Compound I-194, 5-[2-(3-Chloro-4-ethoxy-phenylamino)-5-methyl-pyrimidin-4-ylamino]-3H-benzooxazol-2-one]",< 500
